# In US6017958A, “Method of treating malignant tumors with thyroxine analogues having no significant hormonal activity” (Octamer, Inc., priority 1997, dated 2000):
# Where a name gives a salt, the structure may show the parent alone.
# How the values were obtained:
# pADPRT = conditions: parent 6-amino-1,2-benzopyrene; cited from earlier work
# HIV = conditions: parent 6-amino-1,2-benzopyrene; cited from earlier work
# tumor = conditions: parent 6-amino-1,2-benzopyrene; cited from earlier work
# MDA-MB-231 cells = assay: Flow cytometry / M phase block; type: cell-based, human; conditions: colcemid 0.1 μg/ml, 4 hrs
# Procedure: The MDA-MB-231 cell line was obtained from ATCC (Rockville, Md., USA) and cells were cultured in T-75 flasks at 37° C. in Minimum Essential Medium-alpha, supplemented with 10% FCS. In controls, not receiving DIME, 0.1 μg/ml colcemid was added to cultures for 4 hrs prior to the collection of metaphase-blocked cells and preparation of cell spreads. […] Cells (10^7) were isolated from T-75 trypsinization for 5 min with 0.025% trypsin, and sedimented by centrifugation, resuspended and kept in 10 ml of 75 mM KC1 at 37° C. for 10 min, resedimented, and fixed in 10 ml methanol-acetic acid, with four successive changes of methanol-acetic acid. An aliquot of the final cell suspension (100 μl) was dropped on ethanol-cleaned slides and air-dried.
# Cells exposed to different treatments were grown to confluence, trypsinized, and washed with phosphate buffered saline (PBS). For nuclear analysis, cells were fixed in Vindelov Citrate cell buffer: sucrose 250 mM, trisodium citrate. 2H20 40 mM, DMSO 50 ml in 1000 ml solution, pH 7.6. Normal human lymphocytes obtained from blood were used as controls. Each cell sample and control was counted with a hemacytometer and the cell concentration was adjusted to 2×10^6 cells/ml. Two million cells from each cell line in a total volume of 2 ml were washed twice with fresh PBS, treated with 200 μg/ml RNAase at 37° C. for 30 min, and stained with 10 μg/ml propidium iodide for 45 min. Flow cytometric analysis was performed on a FACScan benchtop flow cytometer (Becton-Dickinson, San Jose, Calif., USA) equipped with an air-cooled argon laser tuned to 488 nm. Twenty thousand events were collected as six parameter list mode data for analysis and archival storage. Two light scatter parameters (forward and side), propidium iodide fluorescence measured at 575/26 nm and above 620 nm, and doublet discrimination by fluorescence pulse width and area were acquired at 1024 data channel resolution. Acquisition threshold was set on propidium iodide positive events above channel 100. Gating to exclude small debris, large clumps and cell doublets was done post acquisition.
# Earl's L cells = conditions: Kirshan, 1968; cited from earlier work
# [1] = test system: iodine uptake into the thyroid; conditions: rat, in vivo; cited from earlier work
# Rana pipiens tadpoles = conditions: tadpole metamorphosis; cited from earlier work
# [2] = test system: mouse pituitary thyrotropic tumors / non-malignant mouse pituitary adenoma; conditions: cited from earlier work
compound,measurement,setting,value
"Nc1ccc2oc(=O)ccc2c1I [5-iodo-6-amino-1,2-benzopyrone]",pADPRT inhibitory potency versus parent compound,pADPRT,significantly augmented
same,antiHIV activity versus parent compound,HIV,significantly augmented
same,antitumor action versus parent compound,tumor,significantly augmented
"CN[C@H]1CCc2cc(OC)c(OC)c(OC)c2-c2ccc(OC)c(=O)cc21 [colcemid, reference compound]","cell cycle block in M phase, comparison of DIME and colcemid",MDA-MB-231 cells,indistinguishable with respect to the cell cycle block in M phase
CC[C@]1(O)C[C@@H]2CN(CCc3c([nH]c4ccccc34)[C@@](C(=O)OC)(c3cc4c(cc3OC)N(C)[C@H]3[C@@](O)(C(=O)OC)[C@H](OC(C)=O)[C@]5(CC)C=CCN6CC[C@]43[C@@H]65)C2)C1 [vinblastine sulfate],metaphase block / multinucleation,Earl's L cells,induces metaphase blocked multinucleated cells
N[C@@H](Cc1cc(I)c(Oc2cc(I)c(O)c(I)c2)c(I)c1)C(=O)O [thyroxine],suppression of iodine uptake by the thyroid,[1],suppresses uptake of iodine by the thyroid
same,metamorphosis / cell differentiating activity,Rana pipiens tadpoles,induces cell differentiation
same,growth of mouse pituitary tumor,[2],depress growth of non-malignant mouse pituitary thyrotropic tumors
